Experimental data taken from ChEMBL document CHEMBL3045379, “Synthesis and Fungicidal Activity of 3-1, 2, 4-Thiadiazolines” (J Pestic Sci, 1992).
Calls of active or inactive are those of the source. No cut-off for these calls is given here.

Tested on: not listed separately
Experiment: Chemical stability of the compound in acetonitrile solution after 1 day
Type: physicochemical
Conditions: 24 h

Stability | SMILES
Unstable | Cn1s/c(=N/c2ccc(Cl)cc2)nc1-c1ccccc1

Tested on: Pseudoperonospora cubensis
Experiment: Fungicidal activity against Pseudoperonospora cubensis infected cucumber cv. Sagamihanjiro seedling assessed as inhibition of zoospore liberation from zoosporangia after 4 days by microscopic analysis
Type: functional, organism-based
Conditions: not given

SMILES | inhibition
Cn1s/c(=N/c2ccc(Cl)cc2)nc1-c1ccccc1 | Active

Tested on: Pseudoperonospora cubensis
Experiment: Fungicidal activity against Pseudoperonospora cubensis infected in cucumber cv. Sagamihanjiro seedling assessed as reduction in leaf lesion after 4 days by pot test
Type: functional, organism-based
Conditions: not given

SMILES | EC50
CN(C)c1n/c(=N\c2ccc(Cl)cc2)sn1C | 52.5 ppm
Cc1ccc(/N=c2\nc(-c3ccc(Cl)cc3)n(C)s2)cc1C | 13.2 ppm
CCc1n/c(=N\c2ccc(Cl)cc2)sn1C | 352.6 ppm
Cc1ccc(/N=c2\nc(-c3ccc(Cl)cc3)n(C)s2)cc1 | 9.2 ppm
Clc1ccc(/N=c2\nc3n(s2)CCCS3)cc1 | > 400 ppm
Cn1s/c(=N/c2ccc(Br)cc2)nc1-c1ccccc1 | 17.9 ppm
Cc1ccc(/N=c2\nc(-c3ccccc3)n(C)s2)cc1 | 60.2 ppm
CCCc1ccc(/N=c2\nc(-c3ccc(Cl)cc3)n(C)s2)cc1 | 23.8 ppm
CCc1ccc(/N=c2\nc(-c3ccc(Cl)cc3)n(C)s2)cc1 | 21.8 ppm
Clc1ccc(/N=c2\nc3n(s2)CCS3)cc1 | 68.6 ppm
CCCn1s/c(=N/c2ccc(Cl)cc2)nc1-c1ccccc1 | 9.9 ppm
Cc1cccc(C)c1/N=c1\nc(-c2ccccc2)n(C)s1 | 128.1 ppm
Clc1ccc(/N=c2\nc(-c3ccc(Cl)cc3)n(Cc3ccccc3)s2)cc1 | 43.3 ppm
Cn1o/c(=N/c2ccc(Cl)cc2)nc1-c1ccc(Cl)cc1 | > 400 ppm
CN(c1ccccc1)c1n/c(=N\c2ccc(Cl)cc2)sn1C | 37.5 ppm
CCCCc1ccc(/N=c2\nc(-c3ccc(Cl)cc3)n(C)s2)cc1 | 30.4 ppm
CCn1s/c(=N/c2ccc(Cl)cc2)nc1-c1ccc(Cl)cc1 | 80.4 ppm
C/N=C(/N=c1\sn(-c2ccccc2)c(=S)n1-c1ccc(Cl)cc1)c1ccccc1 | 33.6 ppm
CCN(CC)c1n/c(=N\c2ccc(Cl)cc2)sn1C | 13.1 ppm
CCn1s/c(=N/c2cccc([N+](=O)[O-])c2)nc1-c1ccccc1 | 63.1 ppm
COc1ccc(/N=c2\nc(-c3ccc(Cl)cc3)n(C)s2)cc1 | 11 ppm
Cn1s/c(=N/c2ccc(Cl)cc2)nc1-c1ccccc1 | 5.7 ppm
Cn1s/c(=N/c2ccc(C(C)(C)C)cc2)nc1-c1ccc(Cl)cc1 | 14 ppm
C/N=C(/N=c1\ssc(=S)n1-c1ccc(Cl)cc1)c1ccccc1 | 84.1 ppm
Cn1s/c(=N/c2ccc(Br)cc2)nc1-c1ccc(Cl)cc1 | 12 ppm
Cn1s/c(=N/c2ccc(Cl)cc2)nc1-c1ccco1 | 8.4 ppm

SMILES | EC50
Clc1ccc(Nc2nc(-c3ccccc3)ns2)cc1 | Not Active
Cn1s/c(=N/c2cccc(Cl)c2Cl)nc1-c1ccc(Cl)cc1 | 179 ppm
Cn1s/c(=N/c2ccc(I)cc2)nc1-c1ccccc1 | 100 ppm
Cn1s/c(=N/c2ccc(Cl)cc2)nc1-c1ccc(Cl)cc1 | 7.2 ppm
CCOC(=O)C1CN(c2ccc(Cl)cc2)/C(=N/C(=N/C)c2ccccc2)S1 (stereo not drawn) | 92.8 ppm
Cc1cccc(/N=c2\nc(-c3ccc(Cl)cc3)n(C)s2)c1 | 26.1 ppm
Cn1s/c(=N/c2ccccc2)nc1-c1ccccc1 | 45.3 ppm
Cc1n/c(=N\c2ccc(Cl)cc2)sn1C | 66.9 ppm
Cn1s/c(=N/c2ccc(-c3ccccc3)cc2)nc1-c1ccccc1 | 23.1 ppm
Cn1s/c(=N/c2ccc(Cl)cc2)nc1-c1ccccc1Cl | 11.6 ppm
Cn1s/c(=N/c2ccc(Cl)cc2)nc1-c1ccc(Cl)c(Cl)c1 | 9.5 ppm
Cc1cc(C)cc(/N=c2\nc(-c3ccc(Cl)cc3)n(C)s2)c1 | 26.4 ppm
Cn1s/c(=N/c2ccc(Cl)cc2)nc1-c1cccc(Cl)c1 | 25.2 ppm
CCCn1s/c(=N/c2ccc(C)cc2)nc1-c1ccccc1 | 141.5 ppm
CSc1n/c(=N\c2ccc(Cl)cc2)sn1C | 94.9 ppm
Cn1s/c(=N/c2ccc(Oc3ccc(Cl)cc3)cc2)nc1-c1ccccc1 | 31.9 ppm
Cn1s/c(=N/c2ccc(Cl)cc2)nc1SCc1ccccc1 | 46.2 ppm
Cn1s/c(=N/c2ccc(Br)cc2)nc1-c1ccc(Cl)cc1Cl | 131.1 ppm
CCOc1n/c(=N\c2ccc(Cl)cc2)sn1C | 308.1 ppm
Cn1s/c(=N/c2ccc(Cl)cc2)nc1-c1ccc([N+](=O)[O-])cc1 | 29.7 ppm
CCSc1n/c(=N\c2ccc(Cl)cc2)sn1C | 36.2 ppm
C/N=C(/N=c1\snc(-c2ccccc2)n1-c1ccc(Cl)cc1)c1ccccc1 | 45.3 ppm
Cn1s/c(=N/c2ccc(Cl)cc2Cl)nc1-c1ccccc1 | 63.4 ppm
Br.Cn1s/c(=N/C2CCCCC2)nc1-c1ccccc1 | > 400 ppm
COc1n/c(=N\c2ccc(Cl)cc2)sn1C | > 400 ppm
Clc1ccc(/N=c2\nc(-c3ccc(Cl)cc3)n(-c3ccccc3)s2)cc1 | > 400 ppm

SMILES | EC50
Cn1s/c(=N/c2ccc(Cl)cc2)nc1-c1cc(Cl)cc(Cl)c1 | 66.8 ppm
Cn1s/c(=N/c2ccc(Cl)cc2)nc1C(Cl)(Cl)Cl | 37 ppm
Cn1s/c(=N/C(=O)c2ccc(Cl)cc2)nc1-c1ccc(Cl)cc1 | 400 ppm
Br.CC/N=c1\nc(-c2ccccc2)n(CC)s1 | > 400 ppm
CC1(C)Cn2s/c(=N/c3ccc(Cl)cc3)nc2S1 | 35.5 ppm
CCn1s/c(=N/c2ccc(Cl)cc2)nc1-c1ccccc1 | 13.6 ppm
Cn1s/c(=N/c2ccccc2-c2ccccc2)nc1-c1ccccc1 | 30.4 ppm
COc1ccc(-c2n/c(=N\c3ccc(Cl)cc3)sn2C)cc1 | 132.7 ppm
Cn1s/c(=N/c2cccc(Cl)c2)nc1-c1ccc(Cl)cc1 | 25.9 ppm
Cn1s/c(=N/c2ccc(Cl)c(Cl)c2)nc1-c1ccc(Cl)cc1 | 24.7 ppm
CN(C)C(=O)n1s/c(=N/c2ccc(Cl)cc2)nc1-c1ccccc1 | 87.5 ppm
Cn1s/c(=N/c2ccccc2)nc1-c1ccc(Cl)cc1 | 23.4 ppm
CN(C)c1ccc(/N=c2\nc(-c3ccc(Cl)cc3)n(C)s2)cc1 | 141.5 ppm
Cc1ccc(-c2n/c(=N\c3ccc(Cl)cc3)sn2C)cc1 | 37.4 ppm
Cn1s/c(=N/c2ccc([N+](=O)[O-])cc2)nc1-c1ccccc1 | > 400 ppm
Cn1s/c(=N/c2ccc(O)cc2)nc1-c1ccccc1 | 39.6 ppm
CCn1s/c(=N/c2cc(Cl)cc(Cl)c2)nc1-c1ccc(Cl)cc1 | 86.7 ppm
Cn1s/c(=N/c2ccc(Nc3ccccc3)cc2)nc1-c1ccccc1 | 81 ppm
CC(C)n1s/c(=N/c2ccc(Cl)cc2)nc1-c1ccccc1 | 72.9 ppm
Cc1cccc(/N=c2\nc(-c3ccc(Cl)cc3)n(C)s2)c1C | 25 ppm
CC(C)c1n/c(=N\c2ccc(Cl)cc2)sn1C | 252.7 ppm
Cn1s/c(=N/c2ccc(Cl)cc2)nc1Cc1ccccc1 | 79.1 ppm
CCn1s/c(=N/c2ccc(Br)cc2)nc1-c1ccccc1 | 70.2 ppm
Cn1s/c(=N/c2ccc(F)cc2)nc1-c1ccc(Cl)cc1 | 22.1 ppm

Tested on: not listed separately
Experiment: Chemical stability of the compound in THF solution after 1 day
Type: physicochemical
Conditions: 24 h

Stability | SMILES
Unstable | Cn1s/c(=N/c2ccc(Cl)cc2)nc1-c1ccccc1

Tested on: not listed separately
Experiment: Chemical stability of the compound in acetone solution after 1 day
Type: physicochemical
Conditions: 24 h

Stability | SMILES
Unstable | Cn1s/c(=N/c2ccc(Cl)cc2)nc1-c1ccccc1

Tested on: Pseudoperonospora cubensis
Experiment: Fungicidal activity against Pseudoperonospora cubensis infected cucumber cv. Sagamihanjiro seedling assessed as inhibition of zoospore liberation from zoosporangia after 4 days by microscopic analysis in presence of cysteine
Type: functional, organism-based
Conditions: not given

SMILES | inhibition
Cn1s/c(=N/c2ccc(Cl)cc2)nc1-c1ccccc1 | inactive

Tested on: not listed separately
Experiment: Chemical stability of the compound in ethanol solution after 1 week
Type: physicochemical
Conditions: 168 h

Stability | SMILES
Stable | Cn1s/c(=N/c2ccc(Cl)cc2)nc1-c1ccccc1

Species on record: Homo sapiens
Experiment: Inhibition of ADH (unknown origin) at 3 ug/ml after 1 hr
Conditions: not given

inhibition | SMILES
Active | Cn1s/c(=N/c2ccc(Cl)cc2)nc1-c1ccccc1
